Experimental data published in patent US7094759B2, “Oral modified SSP-5 antibacterial composition” (GC Corporation, priority 2003, dated 2006).

Legend:
Experiment in all cases: Adhesion suppressing properties on saliva treatment sensor chip (BIAcore)
Conditions in all cases: peptide solution 1 mg/mL in PBS pH7.4
S. sanguis (ATCC10556) = type: binding, Streptococcus sanguis
Description: (§1) S. sanguis (ATCC10556, ATCC10558), S. mutans (ATCC25175) were used as intraoral bacteria. All bacteria were cultured under an anaerobic conditions using Brain Heart Infusion broth (BHI; Difco Lavoratory, Detroit, Mich.) as a culture medium.
(§2) The specimen was stimulus saliva secreted by biting paraffine wax for 3 minutes by 3 subjects (A, B, C). The saliva was collected, incubated at 4° C. for 5 minutes, and centrifuged at 10000×g for 10 minutes at 4° C. Then, the supernatant was used the saliva specimen.
(§3) The adhesion suppressing properties of bacteria was confirmed by using a sensor chip as a substitute for a tooth. As the sensor chip, Pioneer Sensor Chip F1 (produced by BIAcore Company) was used. The sensor chip F1 was activated at flow speed of […] for 1 minute with 70 μL of 400 mM N-ethyl-N′-(3-diaethylaminoprophyl) carbodiimide and 100 mM N-hydroxy siccinimide solution. Then, the above saliva specimen was diluted 20 times, and bonded on the chip by passing 70 μL of sample over the activated chip. (Hereinafter, this chip was said to as a saliva treatment sensor chip)
(§4) The confirmation method of the adhesion suppressing properties by BIA core™ Biosensor system (produced by BIAcore Company) will be explained. First, each bacteria is passed over the saliva treatment sensor chip at 0.D.=1 (550 nm) and a flow speed of 20 μL/min. Then, the bonding state (Response Unit:RU) between the bacteria and saliva on the surface of the sensor chip was measured. The sensor chip was not carried out the peptide treatment.
(§5) Then, to the other saliva treatment sensor chip, which was different from the saliva treatment sensor chip adhered with bacteria, a modified SSP-5(390–402) peptide solution (1 mg/mL) dissolved with a phosphate buffer solution (PBS, pH7.4) was passed over the sensor chip at flow speed of 10 μL/min, and the surface of the saliva treatment sensor chip was treated with the peptide. Then, each bacteria was passed over the chip at 0.D.=1 (550 nm) and flow speed of 20 μL/min, and the bonding state (Response Unit:RU) between each bacteria and saliva on the sensor surface was measured. The final bacterium adhesion suppressing ratio by the peptide treatment was measured using the following formula 1. Adhesion suppressing ratio=100×{[Bonding state between bacteria and saliva (RU)]−[Bonding state between bacteria and saliva (after the peptide treatment) (RU)]}/[Bonding state between bacteria and saliva (RU)] [Formula 1]

S. sanguis (ATCC10558) = type: binding, Streptococcus sanguis
Description: as §1, §2, §3, §4, §5

S. mutans (ATCC25175) = type: binding, Streptococcus mutans
Description: as §1, §2, §3
The confirmation method of the adhesion suppressing properties by BIA core™ Biosensor system (produced by BIAcore Company) will be explained. […] Then, the bonding state (Response Unit:RU) between the bacteria and saliva on the surface of the sensor chip was measured. […]
as §5, with “Adhesion suppressing ratio=100×{[Bonding state between bacteria and saliva (RU)]−[Bonding state between bacteria and saliva (after the peptide treatment) (RU)]}/[Bonding state between bacteria and saliva (RU)] [Formula 1]” left out

## modified SSP-5(390–402): Modified fragment (390–402) of Streptococcus sanguis surface protein SSP-5; position 400 (residue 11 of SEQ ID NO: 1) is threonine
S. sanguis (ATCC10556); saliva sample A
  Adhesion suppressing ratio S. sanguis (ATCC10556): 61%
S. sanguis (ATCC10556); saliva sample B
  Adhesion suppressing ratio S. sanguis (ATCC10556): 57%
S. sanguis (ATCC10556); saliva sample C
  Adhesion suppressing ratio S. sanguis (ATCC10556): 65%
S. sanguis (ATCC10558); saliva sample A
  Adhesion suppressing ratio S. sanguis (ATCC10558): 59%
S. sanguis (ATCC10558); saliva sample B
  Adhesion suppressing ratio S. sanguis (ATCC10558): 63%
S. sanguis (ATCC10558); saliva sample C
  Adhesion suppressing ratio S. sanguis (ATCC10558): 61%
S. mutans (ATCC25175); saliva sample A
  Adhesion suppressing ratio S. mutans (ATCC25175): 55%
S. mutans (ATCC25175); saliva sample B
  Adhesion suppressing ratio S. mutans (ATCC25175): 60%
S. mutans (ATCC25175); saliva sample C
  Adhesion suppressing ratio S. mutans (ATCC25175): 58%
